Values quoted from earlier work in patent US9585967B2, “Nicotine-containing product” (priority 2008, dated 2017).

How the values were obtained:
[1] = extensive first-pass metabolism
[2] = in vivo

## CN1CCC[C@H]1c1cccnc1 [Nicotine, (S)-3-(1-Methyl-2-pyrrolidinyl)pyridine]
[1]
  Oral bioavailability: about 30%
[2]
  half life in the body: around two
